Experimental data published in paper PMC3265452 (PLoS Neglected Tropical Diseases, 2012).
Where a name gives a salt, the structure may show the parent alone.

target: AaDOP2 (Aedes aegypti, UniProt H6D5H2); assay: AaDOP2 antagonist screen of the LOPAC1280 library (HEK-CRELuc-Aadop2 cells, luminescence); assay type: cell-based; conditions: not given
Sequence (H6D5H2 1-476): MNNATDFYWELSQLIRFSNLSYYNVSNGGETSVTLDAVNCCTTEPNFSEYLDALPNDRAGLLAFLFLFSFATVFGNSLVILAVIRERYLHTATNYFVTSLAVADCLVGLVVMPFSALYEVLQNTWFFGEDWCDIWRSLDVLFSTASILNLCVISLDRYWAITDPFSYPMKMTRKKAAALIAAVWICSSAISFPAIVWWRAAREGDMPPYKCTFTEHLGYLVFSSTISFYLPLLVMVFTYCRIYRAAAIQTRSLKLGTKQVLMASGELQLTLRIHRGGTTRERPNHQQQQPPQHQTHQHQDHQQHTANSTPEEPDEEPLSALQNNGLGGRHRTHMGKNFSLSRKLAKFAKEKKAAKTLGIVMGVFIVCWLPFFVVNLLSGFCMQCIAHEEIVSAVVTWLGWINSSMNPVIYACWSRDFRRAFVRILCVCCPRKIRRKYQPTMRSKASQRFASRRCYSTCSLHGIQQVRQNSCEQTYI

First: CC(N)C(O)c1ccc(O)c(O)c1 (single isomer, unassigned; (-)) [Compound 388, (-)-alpha-Methylnorepinephrine]
Second: CC(=O)NCCc1c[nH]c2ccc(O)cc12 [Compound 29, N-Acetyl-5-hydroxytryptamine]
The “Compound effect (percent receptor signaling in presence of test compound, relative lux units relative to the SCH23390 control)” value of the first is lower: 88 for the first, 110 for the second.

Going from `COc1ccc2c3c1OC1C(=O)CC[C@@]4(O)[C@@H](C2)N(CC2CC2)CC[C@]314.Cl` (single isomer, unassigned; (-)) [Compound 836, (-)-3-Methoxynaltrexone hydrochloride] to `CN1CCc2cccc3c2[C@H]1Cc1ccc(O)c(O)c1-3` [Compound 48, Apomorphine hydrochloride hemihydrate], the “Compound effect (percent receptor signaling in presence of test compound, relative lux units relative to the SCH23390 control)” value falls from 75 to 54.

Compared with `O=C(O)c1ccccc1Nc1ccccc1` [Compound 2, N-Phenylanthranilic acid], `O=C(O)C1=CC(=C(c2ccc(O)c(C(=O)O)c2)c2ccc(O)c(C(=O)O)c2)C=CC1=O` [Compound 30, Aurintricarboxylic acid] is higher in “Compound effect (percent receptor signaling in presence of test compound, relative lux units relative to the SCH23390 control)” value: 100 for the first, 132 for the second.

Going from `Cl.NCCCCC(=O)O` [Compound 4, 5-Aminovaleric acid hydrochloride] to `NCCCC(=O)O` [Compound 33, GABA], the “Compound effect (percent receptor signaling in presence of test compound, relative lux units relative to the SCH23390 control)” value falls from 115 to 102.

Compared with `O=C(O)CCCCCCCC(=O)O` [Compound 6, Azelaic acid], `CCCCC/C=C\C/C=C\C/C=C\C/C=C\CCCC(=O)NCC(=O)O` [Compound 32, N-arachidonylglycine] is higher in “Compound effect (percent receptor signaling in presence of test compound, relative lux units relative to the SCH23390 control)” value: 107 for the first, 116 for the second.

Going from `NCCc1c[nH]c2ccccc12` [Compound 7, Tryptamine hydrochloride] to `Nn1nnc2ccccc21` [Compound 46, 1-Aminobenzotriazole], the “Compound effect (percent receptor signaling in presence of test compound, relative lux units relative to the SCH23390 control)” value rises from 121 to 141.

Compared with `O=C(O)c1cc2cc(F)ccc2[nH]1` [Compound 8, 5-Fluoroindole-2-carboxylic acid], `NC(=O)c1cccc(N)c1` [Compound 21, 3-aminobenzamide] is higher in “Compound effect (percent receptor signaling in presence of test compound, relative lux units relative to the SCH23390 control)” value: 92 for the first, 96 for the second.

Going from `COc1ccc2[nH]c3c(c2c1)CCNC3` [Compound 9, 6-Methoxy-1,2,3,4-tetrahydro-9H-pyrido[3,4b] indole] to `Cl.Nc1c2c(nc3ccccc13)CCCC2` [Compound 44, 9-Amino-1,2,3,4-tetrahydroacridine hydrochloride], the “Compound effect (percent receptor signaling in presence of test compound, relative lux units relative to the SCH23390 control)” value rises from 116 to 206.

Going from `Nc1nc(SCc2ccc([N+](=O)[O-])cc2)c2ncn([C@@H]3O[C@H](CO)[C@@H](O)[C@H]3O)c2n1` [Compound 10, S-(4-Nitrobenzyl)-6-thioguanosine] to `Nc1ncn([C@@H]2O[C@H](CO)[C@@H](O)[C@H]2O)c(=O)n1` [Compound 36, 5-azacytidine], the “Compound effect (percent receptor signaling in presence of test compound, relative lux units relative to the SCH23390 control)” value falls from 105 to 103.

First: Nc1ccncc1 [Compound 12, 4-Aminopyridine]
Second: Cl.NC1C=CC=C(C(=O)O)C1 (stereo not drawn) [Compound 41, Gabaculine hydrochloride]
The “Compound effect (percent receptor signaling in presence of test compound, relative lux units relative to the SCH23390 control)” value of the first is higher: 110 for the first, 106 for the second.

Compared with `CN1[C@@H]2CC[C@H]1C[C@@H](OC(=O)C(CO)c1ccccc1)C2` (stereo partly drawn) [Compound 13, Atropine sulfate], `C[N+]1(C)[C@@H]2CC[C@H]1C[C@@H](OC(=O)C(CO)c1ccccc1)C2` (stereo partly drawn) [Compound 14, Atropine methyl nitrate] is higher in “Compound effect (percent receptor signaling in presence of test compound, relative lux units relative to the SCH23390 control)” value: 78 for the first, 112 for the second.

First: NC(N)=NCCCCN=C(N)N [Compound 15, Arcaine sulfate]
Second: N#CCCN.N#CCCN.O=C(O)/C=C/C(=O)O [Compound 38, 3-Aminopropionitrile fumarate]
The “Compound effect (percent receptor signaling in presence of test compound, relative lux units relative to the SCH23390 control)” value of the first is higher: 122 for the first, 100 for the second.

Going from `Cl.NC1(C(=O)O)CC1` [Compound 16, 1-Aminocyclopropanecarboxylic acid hydrochloride] to `O=C(O)[C@@H]1CCN1` [Compound 19, L-azetidine-2-carboxylic acid], the “Compound effect (percent receptor signaling in presence of test compound, relative lux units relative to the SCH23390 control)” value rises from 104 to 115.

First: Cl.NCCCCNS(=O)(=O)c1ccc2c(Cl)cccc2c1 [Compound 18, N-(4-Aminobutyl)-5-chloro-2-naphthalenesulfonamide hydrochloride]
Second: O=c1cc(-c2ccc(O)cc2)oc2cc(O)cc(O)c12 [Compound 39, Apigenin]
The “Compound effect (percent receptor signaling in presence of test compound, relative lux units relative to the SCH23390 control)” value of the first is higher: 97 for the first, 21 for the second.

Going from `COC(=O)[C@H]1[C@H]2C[C@@H]3c4[nH]c5cc(OC)ccc5c4CCN3C[C@H]2C[C@@H](OC(=O)c2cc(OC)c(OC)c(OC)c2)[C@@H]1OC` [Compound 24, Reserpine] to `Nc1nc(N)c2nc(CNc3ccc(C(=O)N[C@@H](CCC(=O)O)C(=O)O)cc3)cnc2n1` [Compound 28, Aminopterin], the “Compound effect (percent receptor signaling in presence of test compound, relative lux units relative to the SCH23390 control)” value falls from 113 to 112.

First: NC12CC3CC(CC(C3)C1)C2 [Compound 25, Amantadine hydrochloride]
Second: O=C(O)CCC/C=C\C[C@@H]1[C@@H](/C=C/[C@H](O)C2Cc3ccccc3C2)[C@@H](F)C[C@@H]1O [Compound 45, AL-8810]
The “Compound effect (percent receptor signaling in presence of test compound, relative lux units relative to the SCH23390 control)” value of the first is lower: 84 for the first, 102 for the second.

Going from `Cn1c(=O)c2[nH]cnc2n(C)c1=O.Cn1c(=O)c2[nH]cnc2n(C)c1=O.NCCN` [Compound 26, Aminophylline ethylenediamine] to `CCN(c1nc(N)c(C(=O)NC(=N)N)nc1Cl)C(C)C` [Compound 37, 5-(N-Ethyl-N-isopropyl)amiloride], the “Compound effect (percent receptor signaling in presence of test compound, relative lux units relative to the SCH23390 control)” value falls from 129 to 75.

Going from `Cc1cn([C@H]2C[C@H](N=[N+]=[N-])[C@@H](CO)O2)c(=O)[nH]c1=O` [Compound 34, 3'-Azido-3'-deoxythymidine] to `CC1=C(C)C(=O)C(CCCCC#CCCCC#CCO)=C(C)C1=O` [Compound 43, AA-861], the “Compound effect (percent receptor signaling in presence of test compound, relative lux units relative to the SCH23390 control)” value falls from 114 to 69.

With `CC(=O)OC(C)C[N+](C)(C)C.[Cl-]` (stereo not drawn) [Compound 35, Acetyl-beta-methylcholine chloride] the “Compound effect (percent receptor signaling in presence of test compound, relative lux units relative to the SCH23390 control)” value was 127.

same assay, conditions: 10 µM compound, 300 nM dopamine, 2 hr; hit = compound effect <20

Going from `Nc1ncnc2c1nc(Sc1ccc(Cl)cc1)n2C1OC2COP(=O)(O)O[C@H]2C1O` (stereo in doubt) [Compound 251, 8-(4-Chlorophenylthio)-cAMP sodium] to `NC(=S)c1ccc[n+]([C@@H]2OC(COP(=O)([O-])OP(=O)(O)OC[C@H]3O[C@@H](n4cnc5c(N)ncnc54)[C@H](OP(=O)(O)O)[C@@H]3O)C(O)C2O)c1` (stereo in doubt) [Compound 1183, Thio-NADP sodium], the “Compound effect (percent receptor signaling in presence of test compound, relative lux units relative to the SCH23390 control)” value falls from 97% to 84%.

First: Brc1ccc([C@H]2CN3CCSC3=N2)cc1.O=C(O)C(=O)O [Compound 3, S(-)-p-Bromotetramisole oxalate]
Second: [N-]=[N+]=Nc1ccc(C(=O)CSC[C@H](NC(=O)CC[C@H](N)C(=O)O)C(=O)NCC(=O)O)cc1 [Compound 27, S-(p-Azidophenacyl)glutathione]
The “Compound effect (percent receptor signaling in presence of test compound, relative lux units relative to the SCH23390 control)” value of the first is higher: 106% for the first, 105% for the second.

Going from `CCN(CC)CCCCCCCCOC(=O)c1cc(OC)c(OC)c(OC)c1.Cl` [Compound 11, TMB-8 hydrochloride] to `Cl.NCCCCCCNS(=O)(=O)c1cccc2c(Cl)cccc12` [Compound 40, W-7 hydrochloride], the “Compound effect (percent receptor signaling in presence of test compound, relative lux units relative to the SCH23390 control)” value falls from 98% to 87%.

Going from `CC(N)=O` [Compound 17, Acetamide] to `NCCCS(=O)(=O)O.[Na]` [Compound 47, 3-Amino-1-propanesulfonic acid sodium], the “Compound effect (percent receptor signaling in presence of test compound, relative lux units relative to the SCH23390 control)” value falls from 108% to 94%.

First: Cl.Nc1cc(Cl)c(N=C2NCCN2)c(Cl)c1 [Compound 20, p-Aminoclonidine hydrochloride]
Second: Nc1ccc2c3c(cccc13)C(=O)NC2=O [Compound 23, 4-Amino-1,8-naphthalimide]
The “Compound effect (percent receptor signaling in presence of test compound, relative lux units relative to the SCH23390 control)” value of the first is lower: 79% for the first, 104% for the second.

In the case of `Cl.NOCC(=O)O.NOCC(=O)O` [Compound 49, O-(Carboxymethyl)hydroxylamine hemihydrochloride], the “Compound effect (percent receptor signaling in presence of test compound, relative lux units relative to the SCH23390 control)” value is reported as 97%.
